According to ChEMBL document CHEMBL1132943, “Synthesis of B-ring homologated estradiol analogues that modulate tubulin polymerization and microtubule stability” (J Med Chem, 2000):

How the values were obtained:
Tubulin [1] = target: T1, Tubulin (Bos taurus, UniProt Q6B856+Q862F3); experiment: Effective concentration for enhancement of tubulin assembly rate was determined; format: functional
Cell line = experiment: Tested for cytotoxicities and mean graph midpoint (MGM) for growth inhibition of all 55 human cell lines; format: functional
Tubulin [2] = target: T1, Tubulin; experiment: Inhibition of polymerization of purified bovine tubulin; format: functional
Tubulin (Bos taurus) [3] = target: T2, Tubulin (Bos taurus) (UniProt Q6B856+Q862L2+Q862F3); experiment: Compound was evaluated for inhibition of colchicine binding to tubulin in experiment I.; format: protein assay; conditions: concentration not given here
Tubulin (Bos taurus) [4] = target: T2, Tubulin (Bos taurus); experiment: Compound was evaluated for inhibition of colchicine binding to tubulin in experiment II.; format: protein assay; conditions: concentration not given here

T1 sequence (Q6B856 whole entry): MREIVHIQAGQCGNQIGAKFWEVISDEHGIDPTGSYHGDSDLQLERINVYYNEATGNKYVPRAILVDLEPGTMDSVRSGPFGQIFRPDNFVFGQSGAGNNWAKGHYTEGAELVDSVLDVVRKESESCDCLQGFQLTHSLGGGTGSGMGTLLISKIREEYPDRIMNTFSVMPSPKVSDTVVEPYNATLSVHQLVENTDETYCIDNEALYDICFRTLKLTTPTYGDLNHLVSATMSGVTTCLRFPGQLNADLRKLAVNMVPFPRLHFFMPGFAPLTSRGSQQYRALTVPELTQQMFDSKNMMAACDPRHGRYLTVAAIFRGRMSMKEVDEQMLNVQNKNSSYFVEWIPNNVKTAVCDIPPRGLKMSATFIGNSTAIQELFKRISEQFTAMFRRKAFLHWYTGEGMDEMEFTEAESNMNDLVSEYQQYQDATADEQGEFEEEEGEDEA
T1 sequence (Q862F3 whole entry): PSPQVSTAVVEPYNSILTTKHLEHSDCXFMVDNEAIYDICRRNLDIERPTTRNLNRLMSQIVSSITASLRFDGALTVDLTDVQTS

| SMILES | EC50 (Tubulin [1]) [µM] | IC50 (Tubulin [2]) [µM] | MGM (Cell line) [µM] | inhibition (Tubulin (Bos taurus) [3]) [%] | inhibition (Tubulin (Bos taurus) [4]) [%] |
| --- | --- | --- | --- | --- | --- |
| CCOc1cc2c(cc1OC(C)=O)C(=O)C[C@@H]1[C@@H]2CC[C@]2(C)[C@@H](OC(C)=O)CC[C@@H]12 | > 400 |  |  |  |  |
| CCOc1cc2c(cc1OC(C)=O)CC(=O)CC1C2CC[C@@]2(C)C1CC[C@@H]2OC(C)=O (some centres undefined) | > 400 |  |  |  |  |
| CC(=O)O[C@H]1C(=O)[C@@]2(C)[C@H]([C@H](OC(=O)c3ccccc3)[C@]3(O)C[C@H](OC(=O)[C@H](O)[C@@H](NC(=O)c4ccccc4)c4ccccc4)C(C)=C1C3(C)C)[C@]1(OC(C)=O)CO[C@@H]1C[C@@H]2O [PACLITAXEL] | 0.83 |  |  |  |  |
| CCOc1cc2c(cc1O)/C(=N\O)C[C@@H]1[C@@H]2CC[C@]2(C)[C@@H](O)CC[C@@H]12 |  |  | 0.079 |  |  |
| CCOc1cc2c(cc1OC(C)=O)/C(=N/OC)CCC1C2CC[C@@]2(C)C1CC[C@@H]2OC(C)=O (some centres undefined) | > 200 |  |  |  |  |
| CCOc1cc2c(cc1O)C/C(=N\NS(=O)(=O)c1ccc(C)cc1)CC1C2CC[C@@]2(C)C1CC[C@@H]2O (some centres undefined) |  | 80 | 15.5 |  |  |
| CCOc1cc2c(cc1O)/C(=N/OC)CCC1C2CC[C@@]2(C)C1CC[C@@H]2O (some centres undefined) |  | 30 | 24 |  |  |
| CCOc1cc2c(cc1O)C(=O)C[C@@H]1[C@@H]2CC[C@]2(C)[C@@H](O)CC[C@@H]12 |  | 3 | 0.13 | 19 |  |
| COc1cc2c(cc1O)CC[C@@H]1[C@@H]2CC[C@]2(C)[C@@H](O)CC[C@@H]12 [2-METHOXYESTRADIOL] |  | 1.4 | 1.3 | 19 | 60 |
| CCOc1cc2c(cc1OC(C)=O)CCCC1C2CC[C@@]2(C)C1CC[C@@H]2OC(C)=O (some centres undefined) |  | > 400 | 14.5 |  |  |
| CCOc1cc2c(cc1O)/C(=N\OC)C[C@@H]1[C@@H]2CC[C@]2(C)[C@@H](O)CC[C@@H]12 |  |  | 0.27 |  |  |
| CCOc1cc2c(cc1O)C/C(=N\O)CC1C2CC[C@@]2(C)C1CC[C@@H]2O (some centres undefined) |  | 99 | 42.7 |  |  |
| CCOc1cc2c(cc1O)CC[C@@H]1[C@@H]2CC[C@]2(C)[C@@H](O)CC[C@@H]12 |  | 0.66 | 0.076 | 51 | 87 |
| CCOc1cc2c(cc1O)C(=O)CCC1C2CC[C@@]2(C)C1CC[C@@H]2OC(C)=O (some centres undefined) | 8.2 |  |  |  |  |

Second part, led by results:

| EC50 (Tubulin [1]) [µM] | IC50 (Tubulin [2]) [µM] | SMILES | MGM (Cell line) [µM] | inhibition (Tubulin (Bos taurus) [3]) [%] | inhibition (Tubulin (Bos taurus) [4]) [%] |
| --- | --- | --- | --- | --- | --- |
|  | 130 | CCOc1cc2c(cc1O)C(=O)CCC1C2CC[C@@]2(C)C1CC[C@@H]2O (some centres undefined) | 14.4 |  |  |
|  | 8.1 | CCOc1cc2c(cc1O)CC(=O)CC1C2CC[C@@]2(C)C1CC[C@@H]2O (some centres undefined) | 11.5 |  |  |
|  | 5.5 | CCOc1cc2c(cc1OC(C)=O)C(=O)CCC1C2CC[C@@]2(C)C1CC[C@@H]2OC(C)=O (some centres undefined) | >100 |  |  |
|  | 0.85 | CCOc1cc2c(cc1O)C=CCC1C2CC[C@@]2(C)C1CC[C@@H]2O (some centres undefined) | 1.32 |  |  |
| 360 |  | CCOc1cc2c(cc1OC(C)=O)C(=O)CCC1C2CC[C@@]2(C)C1CC[C@@H]2O (some centres undefined) |  |  |  |
|  | 6.9 | CCOc1cc2c(cc1O)[C@@H](NC(C)=O)CCC1C2CC[C@@]2(C)C1CC[C@@H]2O (some centres undefined) | 7 |  |  |
|  | 0.97 | CCOc1cc2c(cc1O)CCCC1C2CC[C@@]2(C)C1CC[C@@H]2O (some centres undefined) | 2.48 | 56 |  |
|  | 57 | CCOc1cc2c(cc1O)/C(=N/O)CCC1C2CC[C@@]2(C)C1CC[C@@H]2O (some centres undefined) | 51.3 |  |  |
| > 200 |  | CCOc1cc2c(cc1O)[C@H](NC(C)=O)CC[C@H]1C3CC[C@H](O)[C@@]3(C)CC[C@H]21 (some centres undefined) | 90.4 |  |  |
